# Experimental data: patent publication US10100078B2, “Nanoparticles, process for preparation and use thereof as carrier for amphipatic and hydrophobic molecules in fields of medicine including cancer treatment and food related compounds” (priority 2011, dated 2018)
# Tests used:
# [1] = system: PC-3 prostate cancer cells; experiment: FMCA cancer cell killing effect on PC-3 prostate cancer cells; format: cell-based, human; conditions: PC-3, 3 days
# Protocol: The human prostate adenocarcinoma, PC-3, cultured in a 50/50 mixture of HAM's F-12K and RPMI-1640. […] All media were supplemented with 10% heat-inactivated fetal calf serum (FCS), 2 mM glutamine, 100 μg/ml streptomycin and 100 IE/ml penicillin (all from Sigma Aldrich Co, St Louis, Mo., USA). All cell lines were incubated at 37° C. in humidified air containing 5% CO2.
# The FMCA method is based on measurement of fluorescence generated from hydrolysis of fluorescein diacetate (FDA) to fluorescein by cells with intact plasma membranes. After above mentioned incubation for 3 days, the medium was removed by aspiration. […] The plates were incubated for 45 minutes and the generated fluorescence from each well was measured in a 96-well scanning fluorometer. The fluorescence is proportional to the number of intact cells in the well. Quality criteria for a successful analysis included a fluorescence signal in the control wells of more than five times of the mean blank value, a mean co-efficient of variation (CV) in the control wells of less than 30%.
# The samples were 5-fold serially diluted in 6 steps starting from the concentration of 100 μg/ml, and incubated with PC-3 prostate cancer cells for 3 days. Then the cells were stained and read by the FMCA method.
# PC-3 cells were exposed for 3 days at pre-determined concentrations of G3 and docetaxel separately and in combination as shown on the graph. […]
# [2] = system: HL-60 AML cells; experiment: FMCA cancer cell killing effect on HL-60 AML cells; format: cell-based, human; conditions: HL-60, 3 days, pre-determined concentrations, alone or combined; FIG. 7
# Protocol: All media were supplemented with 10% heat-inactivated fetal calf serum (FCS), 2 mM glutamine, 100 μg/ml streptomycin and 100 IE/ml penicillin (all from Sigma Aldrich Co, St Louis, Mo., USA). All cell lines were incubated at 37° C. in humidified air containing 5% CO2.
# The FMCA method is based on measurement of fluorescence generated from hydrolysis of fluorescein diacetate (FDA) to fluorescein by cells with intact plasma membranes. After above mentioned incubation for 3 days, the medium was removed by aspiration. After one wash with PBS, 100 μl/well of FDA dissolved in a physiological buffer (10 μg/ml) was added. The plates were incubated for 45 minutes and the generated fluorescence from each well was measured in a 96-well scanning fluorometer. The fluorescence is proportional to the number of intact cells in the well. Quality criteria for a successful analysis included a fluorescence signal in the control wells of more than five times of the mean blank value, a mean co-efficient of variation (CV) in the control wells of less than 30%.
# The samples were 5-fold serial diluted in 6 steps starting from 100 μg/ml, and incubated or 3 days with HL-60 AML cells f. Then the cells were stained and read by the FMCA method.
# HL-60 AML cells were exposed for 3 days at pre-determined concentrations of G3 and cytarabine separately and in combination of these two as shown on FIG. 7. […]
# [3] = Detection of vitamin D3 in the water phase (DiaSorin Liaison); format: physicochemical; conditions: 50% cholesterol and 50% vitamin D3 membrane, assay has about one percent cross-reactivity with vitamin D3
# Protocol: Samples with cholecalciferol (vitamin D3) incorporated in G3 particles were analysed at a University Hospital Laboratory on a Liaison automatic instrument. Although the assay (DiaSorin Liaison) is designed to measure 25-HO-D3 it has about one percent cross-reactivity with non-hydroxylated vitamin D3.
# G3 particles were formed using 50% cholesterol and 50% vitamin D3 to form the lipid membrane. Quil A was added into the water phase to generate the G3 particles (for details, please refer to Example 1). 100% Cholesterol and 100% Vitamin D3 in water were used as the controls. Samples with vitamin D3 incorporated in G3 particles were analysed at the Uppsala University Hospital Laboratory on a DiaSorin Liaison automatic instrument.
smiles,measurement,setting,value
"CO[C@H]1C(=O)[C@]2(C)[C@@H](OC)C[C@H]3OC[C@@]3(OC(C)=O)[C@H]2[C@H](OC(=O)c2ccccc2)[C@]2(O)C[C@H](OC(=O)[C@H](O)[C@@H](NC(=O)OC(C)(C)C)c3ccccc3)C(C)=C1C2(C)C [Cabazitaxel, cabazitaxel]",IC50,"[1]; Homo sapiens, 72 h, cabazitaxel from 100 μM, alone or with G3 fixed 1 μM, FIG. 11",25.5 µM
Nc1ccn([C@@H]2O[C@H](CO)[C@@H](O)[C@@H]2O)c(=O)n1 [cytarabine],cells killed,[2],55%
CC(=O)O[C@@]12CO[C@@H]1C[C@H](O)[C@@]1(C)C(=O)[C@H](O)C3=C(C)[C@@H](OC(=O)[C@H](O)[C@@H](NC(=O)OC(C)(C)C)c4ccccc4)C[C@@](O)([C@@H](OC(=O)c4ccccc4)[C@H]21)C3(C)C [docetaxel],cells killed,"[1]; pre-determined concentrations, alone or combined, FIG. 10",2%
"C=C1CC[C@H](O)C/C1=C/C=C1\CCC[C@]2(C)[C@@H]([C@H](C)CCCC(C)C)CC[C@@H]12 [vitamin D3 control, cholecalciferol]",vitamin D3 detected,[3],only trace amount
